{"source": "paper PMC4274894", "about": "“The poplar Phi class glutathione transferase: expression, activity and structure of GSTF1” (Frontiers in Plant Science, 2014)", "key": {"PttGSTF1 [1]": {"target": "T1, PttGSTF1 (Populus trichocarpa, UniProt A9PHH6)", "T1 construct": "initiator Met cleaved, residues Ala2-Ala215; 24192 Da (WT); homodimer; differs from the P. trichocarpa GSTF1 by Val33 (Ile) and Arg86 (Lys)", "T1 sequence (A9PHH6 entry or part of it)": "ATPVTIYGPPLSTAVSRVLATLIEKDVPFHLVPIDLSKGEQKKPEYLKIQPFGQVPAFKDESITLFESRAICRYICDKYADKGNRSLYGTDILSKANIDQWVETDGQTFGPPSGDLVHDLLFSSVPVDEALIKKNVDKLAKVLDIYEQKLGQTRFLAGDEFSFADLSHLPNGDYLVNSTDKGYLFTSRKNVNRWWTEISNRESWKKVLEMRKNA", "assay": "spectrophotometric GSH-conjugation assay ([…] nm), Michaelis-Menten fit", "type": "biochemical", "conditions": "apparent Km; 0.7 mM GSH; 100 mM phosphate pH 6.5; 25°C; read-out: HNE"}, "PttGSTF1 [2]": {"target": "T2, PttGSTF1 (Populus trichocarpa, UniProt A9PHH6, S13A, form not given)", "T2 construct": "initiator Met cleaved, residues Ala2-Ala215; 24192 Da (WT); homodimer; differs from the P. trichocarpa GSTF1 by Val33 (Ile) and Arg86 (Lys)", "T2 sequence (A9PHH6 entry or part of it S13A, form open)": "as the sequence (A9PHH6 entry or part of it) above, with S12A counted along it", "assay": "spectrophotometric GSH-conjugation assay ([…] nm), Michaelis-Menten fit", "type": "biochemical", "conditions": "apparent Km; 1 mM GSH; 100 mM sodium phosphate pH 7.5; 25°C; read-out: PNP-butyrate"}, "PttGSTF1 [3]": {"target": "T1, PttGSTF1", "assay": "spectrophotometric GSH-conjugation assay ([…] nm), Michaelis-Menten fit", "type": "biochemical", "conditions": "apparent Km; 1 mM GSH; 100 mM sodium phosphate pH 7.5; 25°C; read-out: PNP-butyrate"}, "[4]": {"target": "Populus tremula × P. tremuloides glutathione transferase Phi 1 (PttGSTF1) (Populus tremula × P. tremuloides)", "assay": "SEC; calibrated Superdex 200 10/300, 30 mM Tris-HCl pH 8.0, 200 mM NaCl, 100 μg of purified protein injected, 0.5 ml/min; standards 6500-700,000 Da"}, "[5]": {"target": "PttGSTF1 S13A (Populus tremula × P. tremuloides)", "assay": "SEC; calibrated Superdex 200 10/300, 30 mM Tris-HCl pH 8.0, 200 mM NaCl, 100 μg of purified protein injected, 0.5 ml/min; standards 6500-700,000 Da"}, "[6]": {"target": "PttGSTF1 S13C (Populus tremula × P. tremuloides)", "assay": "SEC; calibrated Superdex 200 10/300, 30 mM Tris-HCl pH 8.0, 200 mM NaCl, 100 μg of purified protein injected, 0.5 ml/min; standards 6500-700,000 Da"}}, "note": "Read-outs that look alike come from different tables or passages of the source.", "data": [{"molecule": "CCCCCC(O)/C=C/C=O", "note": "(stereo not drawn) [HNE, 4-hydroxy-2-nonenal]", "values": [{"measurement": "Km", "setting": "PttGSTF1 [1]", "value": "67.1 ± 6.6", "unit": "µM"}]}, {"molecule": "CCCC(=O)Oc1ccc([N+](=O)[O-])cc1", "note": "[PNP-butyrate]", "values": [{"measurement": "Km", "setting": "PttGSTF1 [2]", "value": "1510 ± 120", "unit": "µM"}, {"measurement": "Km", "setting": "PttGSTF1 [3]", "value": "360 ± 32.2", "unit": "µM"}]}, {"molecule": "Populus tremula × P. tremuloides glutathione transferase Phi 1 (PttGSTF1) (enzyme)", "values": [{"measurement": "stoichiometry N", "setting": "[4]", "value": 2}]}, {"molecule": "PttGSTF1 S13A (enzyme)", "values": [{"measurement": "stoichiometry N", "setting": "[5]", "value": 2}]}, {"molecule": "PttGSTF1 S13C (enzyme)", "values": [{"measurement": "stoichiometry N", "setting": "[6]", "value": 2}]}]}
